From patent US9119396B2, “Method for promoting plant growth” (SUMITOMO CHEMICAL COMPANY, LIMITED, priority 2011, dated 2015)

Assays:
Assay type in all cases: in vivo
[1] = system: Rice (cultivar: Nipponbare); assay: Test Example 1: promotion of root growth in hydroponics of rice; conditions: 1 ppm, 3 days germination + 3 days cultivation, average of 4 or 5 individuals
Experimental: Evaluation Test for Promotion of Root Growth in Hydroponics of Rice Rice (cultivar: Nipponbare) A 1/10,000 volume of each DMSO solution containing each of the present compounds 1 to 4 at 10,000 ppm was added to a Hoagland solution for hydroponics (Hoagland and Amon, California Agricultural Experiment Station 1950 Circular 347 pp. 34) at ¼ concentration to obtain a solution for hydroponics containing each of the present compounds 1 to 4 at 1 ppm. These solutions were used in the treated-group. In a non-treated group, a solution for hydroponics obtained by adding a Hoagland solution for hydroponics at ¼ concentration to a 1/10,000 volume of DMSO was used. The rice seeds were immersed in an aqueous solution of 1% sodium hypochlorite for 10 minutes, followed by 70% ethanol solution to sterilize their surfaces. After that, the seeds were washed with distilled water. The sterilized seeds were immersed in each solution for hydroponics containing the test compound at 1 ppm, and incubated at a temperature of 28° C. for 3 days under dark conditions to stimulate the germination of the seeds. Then, 30 ml of each solution for hydroponics containing the test compound at 1 ppm was dispensed into a plastic tube (20 mm in diameter×113 mm in height) covered with a cardboard on the lateral surface for blocking a light. A float made of a styrene board and a vinyl mesh was placed on the water surface of each solution for hydroponics, and the rice seeds obtained after the stimulation of germination were placed on the float. The seeds were cultivated for 3 days under the conditions of an illuminance of 4,000 lux at the top of the tube, a temperature of 26° C., a humidity of 50%, and a day length of 16 hours. The root length of the rice seedlings obtained after the cultivation was measured by using WinRHIZO system (manufactured by REGENT INSTRUMENTS). The average value of the root length in the treated group was calculated from the measurement values of 4 or 5 individuals. As a result, the root length in the treated group, wherein the plants were treated with the present compound 1, 2, 3 or 4 (at a concentration of 1 ppm in each case), was much longer than that in the non-treated group.

[2] = system: Benthamiana tobacco (Nicotiana benthamiana); assay: Test Example 9: reduction of low-temperature stress in hydroponics of tobacco; conditions: tobacco seedlings, medium with 0.1 ppm compound for 7 days; low-temperature stress 1.5±1.0° C. 7 days, then 3 days at 22° C.
Experimental: Evaluation Test for Reduction of Low-Temperature Stress in Hydroponics of Tobacco (Nicotiana benthamiana) Benthamiana tobacco (Nicotiana benthamiana) DMSO solutions containing each of the present compounds 1, 4 and 5 at a concentration of 100 ppm were prepared. […] These media were used in the treated-group. In a non-treated group, a medium obtained by adding a 1/1,000 volume of DMSO to a Murashige-and-Skoog medium at ½ concentration was used. The seeds of tobacco (Nicotiana benthamiana) were sown on 5 μL of the medium, and incubated at 22° C. overnight. Thereto was added 45 μL of a medium containing each present compound at a concentration of 0.1 ppm, and cultivated for 7 days under the conditions of an illuminance of 4,000 lux, a temperature of 22° C. and a day length of 16 hours, thereby treating the seedlings of tobacco (Nicotiana benthamiana) with the test compound. In the non-treated group, 45 μL of a medium obtained by adding a 1/1,000 volume of DMSO to a Murashige-and-Skoog medium at ½ concentration was added, and treated in the same manner as above. The seedlings of tobacco (Nicotiana benthamiana) treated with the present compounds were cultivated for 7 days under the conditions of an illuminance of 2,000 lux, a temperature of 1.5±1.0° C., and a day length of 16 hours, thereby subjecting to low-temperature stress treatment. The plants of tobacco (Nicotiana benthamiana) subjected to low-temperature stress treatment was cultivated for 3 days under the conditions of an illuminance of 4,000 lux, a temperature of 22° C., and a day length of 16 hours, and then the green leaf area of the plants was visually evaluated. Completely dead plant was scored as 0, the plant without low-temperature stress treatment was scored as 5, the green area was rated on a 6-point scale in ⅕ increments, and the score of not less than 1 was regarded as effective in reducing the stress. As a result of visual evaluation, the green leaf area of plants in the treated group, wherein the plants were treated with the present compound 1, 4 or 5 was much larger than that in the non-treated group.

[3] = system: Rice (cultivar: Nipponbare); assay: Test Example 8: promotion of root growth in hydroponics of rice; conditions: 1 ppm, 3 days germination + 3 days cultivation, average of 4 or 5 individuals
Experimental: Evaluation Test for Promotion of Root Growth in Hydroponics of Rice Rice (cultivar: Nipponbare) A 1/10,000 volume of a DMSO solution containing the present compound 5 at 10,000 ppm was added to a Hoagland solution for hydroponics (Hoagland and Amon, California Agricultural Experiment Station 1950 Circular 347 pp. 34) at ¼ concentration to obtain a solution for hydroponics containing the present compound 5 at 1 ppm. The solution was used in the treated-group. In a non-treated group, a solution for hydroponics obtained by adding a Hoagland solution for hydroponics at ¼ concentration to a 1/10,000 volume of DMSO was used. The rice seeds were immersed in an aqueous solution of 1% sodium hypochlorite for 10 minutes, followed by 70% ethanol solution to sterilize their surfaces. After that, the seeds were washed with distilled water. The sterilized seeds were immersed in the solution for hydroponics containing the test compound at the given concentration, and incubated at a temperature of 28° C. for 3 days under dark conditions to stimulate the germination of the seeds. […] The root length of the rice seedlings obtained after the cultivation was measured by using WinRHIZO system (manufactured by REGENT INSTRUMENTS). The average value of the root length in the treated group was calculated from the measurement values of 4 or 5 individuals. […]

Row | Structure (SMILES) | root length of the rice seedlings vs non-treated group [1] | green leaf area of plants (visual evaluation) vs non-treated group [2] | root length of the rice seedlings vs non-treated group [3]
1 | COC(=O)c1cc2ccc(C(F)(F)F)cc2s1 [compound 2] | much longer | – | –
2 | COC(=O)c1cc2c(C(F)(F)F)cccc2s1 [compound 3] | much longer | – | –
3 | COC(=O)c1cc2cccc(C(F)(F)F)c2s1 [compound 4] | much longer | much larger | –
4 | CCOC(=O)c1cc2cc(C(F)(F)F)ccc2s1 [compound 5] | – | much larger | much longer
